Assays:
Type in all cases: in vivo
patients = assay: Controlled study in comparison with the free acids; tolerability in patients
hampsters [1] = assay: Action on the formation of cholesterol calculi in the gall-bladder (cholesterol-enriched diet, 80 days); details: for % animals with calculi / % animals with crystals: cholesterol-enriched diet
Method: (§1) The investigations were carried out on hampsters (of female sex, but excluding those in a state of pregnancy) having an initial weight of 75-90 g. They were treated for 80 days with oral administration (by gastric probe) of MG-UCD (10-20 mg/kg/day), chenodeoxycholic acid (10-20 mg/kg/day) or ursodeoxycholic acid (10-20 mg/kg/day) (Tables 4 and 5). The animals were maintained for 80 consecutive days on a Nossan feed diet for rats, enriched with cholesterol (2 mg/g of food).
(§2) Each experimental group consisted of 10 units. After 80 days, the animals were narcotised with ethyl ether, and the bile was withdrawn, together with the calculi and crystals from the gall-bladder as described by Pearlman and coll. in Gastroenterology 77, 634 (1979).

hampsters [2] = assay: Bile lipid and bile acid contents of the bile (cholesterol-enriched diet, 80 days)
Method: as §1, §2
The bile acid, phospholipid, cholesterol, cholic acid, chenodeoxycholic acid, ursodeoxycholic acid, DCA (deoxycholic acid) and LCA (lithocholic acid) contents were evaluated in the bile by the methods described by Pearlman and coll. (see above).

rat = assay: Acute lethality and toxicity, oral administration (gastric probe); set-up: key to Toxic symptomatology Type: NN = no symptomatology; D = depression; details: for % mortality at following times after administration 24 h / % mortality at following times after administration 7 days / Toxic symptomatology Type / Toxic symptomatology Latency: oral
Method: Unless otherwise specified, the research was carried out using: a) Mg-UCD capsules as such; b) the powdered contents of Mg-UCD capsules; CDCA (chenodeoxycholic acid) and UDCA (ursodeoxycholic acid) as pure substance which in all cases was partly dissolved and partly suspended under warm conditions (T = 30°C) in 10% gum arabic mucilage (so as to administer 10-40 ml of liquid per kg orally). In certain cases, namely in the experiments involving parenteral administration, the active principle of Mg-UCD, the chenodeoxycholic acid and ursodeoxycholic acid were dissolved in distilled water of slightly alkaline pH (5-10 ml/kg).
The generally acute lethality, toxicity and tolerability were determined by oral administration of the Mg-UCD (by gastric probe) in the Mus musculus, rat and dog. Animals of both sexes were used, none of which were pregnant. They were fasted for about 12 hours before treatment (but allowing them free access to water). The investigations were carried out using the Mg-UCD in powder form. Comparative investigations were carried out on the rat and Mus musculus using the active principle by endoperitoneal administration, and chenodeoxycholic acid and ursodeoxycholic acid by oral administration (using a gastric probe). Each dose was administered to 20 rats or Mus musculus (10 male and 10 female) and to eight dogs (4 male and 4 female). The animals were observed attentively during the 7 days following administration, and any lethality, toxic symptoms, disturbances, functional variations determinable with the eye, behaviour etc. were noted.
The LD50 was determined 7 days after administration using the probit method.

[3] = female hampsters, 10 mg/kg/day oral for 80 days
[4] = female hampsters, 20 mg/kg/day oral for 80 days
[5] = Rat F, 5000 mg/kg (1200 Dts/kg)
[6] = Rat F, 10000 mg/kg (2400 Dts/kg)

Substance: double magnesium salt of chenodeoxycholic acid and ursodeoxycholic acid [Mg-UCD]
- anti-dislipidemic effect (patients; in particular hypotriglyceridemic, at much smaller doses than the individual bile acids): modest anti-dislipidemic effect
- side effects (patients; patients): No significant side effects
- effects compared with the free acids (patients; relatively small doses of the salt against double doses of each acid administered separately): greater effects
- % animals with calculi (hampsters [1]; [3]): 20%
- % animals with crystals (hampsters [1]; [3]): 20%
- % animals with calculi (hampsters [1]; [4]): 0%
- % animals with crystals (hampsters [1]; [4]): 0%
- Body weight (g ± s.e.) after following days 80 (hampsters [1]; female hampsters, day 80, oral, 10 mg/kg/day): 152 ± 8 g
- appearance of cholesterol calculi and crystals in the gall-bladder (hampsters [1]; hampster, oral, more intense than chenodeoxycholic acid or ursodeoxycholic acid): hinders the appearance of cholesterol calculi and crystals in the gall-bladder in a dose-dependent manner
- Bile acids (expressed as molar % ± s.e.) Cheno-deoxycholic acid (hampsters [2]; 10 mg/kg/day oral for 80 days): 28.6 ± 2.9 molar %
- Bile acids (expressed as molar % ± s.e.) Cholic acid (hampsters [2]; 10 mg/kg/day oral for 80 days): 18.1 ± 2.6 molar %
- Bile acids (expressed as molar % ± s.e.) DCA (hampsters [2]; 10 mg/kg/day oral for 80 days): 13.4 ± 0.5 molar %
- Bile acids (expressed as molar % ± s.e.) LCA (hampsters [2]; 10 mg/kg/day oral for 80 days): 2.4 ± 0.1 molar %
- Bile acids (expressed as molar % ± s.e.) Urso-deoxycholic acid (hampsters [2]; 10 mg/kg/day oral for 80 days): 21.7 ± 2.9 molar %
- Bile lipids (expressed as molar % ± s.e.) Bile acids (hampsters [2]; 10 mg/kg/day oral for 80 days): 78.6 ± 5.3 molar %
- Bile lipids (expressed as molar % ± s.e.) Cholesterol (hampsters [2]; 10 mg/kg/day oral for 80 days): 6.9 ± 0.4 molar %
- Bile lipids (expressed as molar % ± s.e.) Phospho-lipids (hampsters [2]; 10 mg/kg/day oral for 80 days): 15.6 ± 1.7 molar %
- Bile acids (expressed as molar % ± s.e.) Cheno-deoxycholic acid (hampsters [2]; 20 mg/kg/day oral for 80 days): 24.4 ± 3.1 molar %
- Bile acids (expressed as molar % ± s.e.) Cholic acid (hampsters [2]; 20 mg/kg/day oral for 80 days): 11.4 ± 1.7 molar %
- Bile acids (expressed as molar % ± s.e.) DCA (hampsters [2]; 20 mg/kg/day oral for 80 days): 10.5 ± 0.4 molar %
- Bile acids (expressed as molar % ± s.e.) LCA (hampsters [2]; 20 mg/kg/day oral for 80 days): 3.6 ± 0.2 molar %
- Bile acids (expressed as molar % ± s.e.) Urso-deoxycholic acid (hampsters [2]; 20 mg/kg/day oral for 80 days): 54.9 ± 3.6 molar %
- Bile lipids (expressed as molar % ± s.e.) Bile acids (hampsters [2]; 20 mg/kg/day oral for 80 days): 80.7 ± 4.7 molar %
- Bile lipids (expressed as molar % ± s.e.) Cholesterol (hampsters [2]; 20 mg/kg/day oral for 80 days): 4.7 ± 0.3 molar %
- Bile lipids (expressed as molar % ± s.e.) Phospho-lipids (hampsters [2]; 20 mg/kg/day oral for 80 days): 14.7 ± 1.9 molar %
- % mortality at following times after administration 24 h (rat; Rat F, 250 mg/kg (60 Dts/kg)): 0%
- % mortality at following times after administration 7 days (rat; Rat F, 250 mg/kg (60 Dts/kg)): 0%
- Toxic symptomatology Type (rat; Rat F, 250 mg/kg (60 Dts/kg)): NN
- % mortality at following times after administration 24 h (rat; Rat F, 2500 mg/kg (600 Dts/kg)): 0%
- % mortality at following times after administration 7 days (rat; Rat F, 2500 mg/kg (600 Dts/kg)): 0%
- Toxic symptomatology Latency (rat; Rat F, 2500 mg/kg (600 Dts/kg)): 5-10 min
- Toxic symptomatology Type (rat; Rat F, 2500 mg/kg (600 Dts/kg)): D
- % mortality at following times after administration 24 h (rat; [5]): 0%
- % mortality at following times after administration 7 days (rat; [5]): 0%
- Toxic symptomatology Latency (rat; [5]): 5-10 min
- Toxic symptomatology Type (rat; [5]): D
- % mortality at following times after administration 24 h (rat; [6]): 10%
- % mortality at following times after administration 7 days (rat; [6]): 10%
- Toxic symptomatology Latency (rat; [6]): 5-10 min
- Toxic symptomatology Type (rat; [6]): D
- LD50 (mg/kg with reliability limits) 7 days after treatment (rat; Rat F, po, probit method): 13100 (10515-16319) mg/kg
- % mortality at following times after administration 24 h (rat; Rat M, 250 mg/kg (60 Dts/kg)): 0%
- % mortality at following times after administration 7 days (rat; Rat M, 250 mg/kg (60 Dts/kg)): 0%
- Toxic symptomatology Type (rat; Rat M, 250 mg/kg (60 Dts/kg)): NN

Reference: patent EP0092073A1, “Magnesium salt of chenodeoxycholic acid and ursodeoxycholic acid, the process for its preparation, and therapeutic compositions which contain it as active principle” (SCHWARZ ITALIA S.p.A., priority 1982, dated 1983)
